# In the NIST ThermoML archive (doi:10.1021/je800497u):
# ± gives the expanded uncertainty stated by the source.
# Conditions: 101 kPa, Liquid
mass density (293.15 K) [kg/m3],viscosity (293.15 K) [mPa·s],mass density (298.15 K) [kg/m3],viscosity (298.15 K) [mPa·s],SMILES
814.6 ± 0.6,4.029 ± 0.089,811 ± 0.6,3.494 ± 0.077,CCCCCO [pentan-1-ol]
803.5 ± 0.7,2.272 ± 0.052,799.6 ± 0.7,1.966 ± 0.045,CCCO [propan-1-ol]
827.9 ± 0.7,11.68 ± 0.22,824.4 ± 0.7,9.671 ± 0.18,CCCCCCCCCO [nonan-1-ol]
822.2 ± 0.6,7.104 ± 0.14,818.7 ± 0.6,5.993 ± 0.12,CCCCCCCO [heptan-1-ol]
